# Measured values from patent US20230255904A1, “PHARMACEUTICAL COMPOSITION FOR PREVENTING OR TREATING CANCER COMPRISING NAPHTHOQUINONE-BASED COMPOUND AND IMMUNE CHECKPOINT INHIBITOR AS ACTIVE INGREDIENTS” (NADIANBIO LTD., priority 2020, published 2023).
# Key:
# [1] = system: spontaneous non-small cell lung cancer (Kras^LSL-G12D/+; Trp53^flox/flox mice); assay: Tumor proliferation in genetically engineered mouse models for spontaneous non-small cell lung cancer (Micro-CT); assay type: in vivo; conditions: compared to before the drug administration, Micro-CT imaging; dunnione 40 mg/kg, carboplatin 25 mg/kg, paclitaxel 10 mg/kg, anti-PD-1 antibody 200 μg/head
# From the text: Models for spontaneous non-small cell lung cancer were induced by constructing conditional mutant mice (Kras^LSL-G12D/+; Trp53^flox/flox mice) having Ras activation and p53 variation through crossbreeding of conditional K-Ras activation variation-genetically engineered mice and conditional p53 variation-genetically engineered mice, and then performing intratracheal instillation of adenoviruses (Ad5-CMV-Cre; 2.5×10^7 PFU/infectious units), into which Cre genes were introduced, into the lung. […]
# After sole administration or co-administration of respective drugs was performed according to the administration schedule listed in Table 38 below and FIG. 35, the tumor growth rate for each group compared to before the drug administration was measured at the 6th week through Micro-CT imaging, and the results thereof were summarized in Table 39.
# [2] = system: EMT6; assay: Tumor growth inhibition, animal model for breast cancer II (EMT6); assay type: in vivo, BALB/c mice; conditions: Experimental Example 14, Dunnione 40 mg/kg oral every day from 11th day, Anti-CTLA4 antibody 200 μg/head i.p. 2 times a week from 11th day, Lapatinib 100 mg/kg oral every day from 11th day
# Protocol: All mice used in the experiments were raised in a sterile animal room with constant temperature (22° C. to 26° C.) and constant humidity (55% to 60%), acclimatized for 1 week while sufficiently supplying typical solid feed (Samtako Inc., Korea) and water, and then used. All experiments were conducted after obtaining approval from the Institutional Animal Care and Use Committee in accordance with the laboratory animal care and ethics regulations of the Institutional Animal Care and Use Committee of Wonkwang University.
# 7-week-old BALB/c or C57BL/6 mice were used, and subcutaneously inoculated using a 1-mL insulin syringe within 30 minutes after mixing the mouse cancer cells with 0.2 mL of PBS.
# After the cancer cell line was subcutaneously implanted, the administration of drugs was started when the size of the cancer reached 50 to 100 mm^3. The volumes (mm^3) of the tumors, which were generated after the inoculation, were measured at intervals of 3 days using a caliper, calculation was performed using the formula of […], and then the results thereof were compared. […]
compound,measurement,setting,value
"CC1OC2=C(C(=O)C(=O)c3ccccc32)C1(C)C (centres unmarked) [Dunnione, 2,3,3-trimethyl-2H-benzo[g][1]benzofuran-4,5-dione]",Tumor growth rate (fold) at 6th week,[1],34.6 ± 54 fold
same,TGI (%),[2],9.7%
